The source made the active and inactive calls. No cut-off for these calls is given here.
Assays:
[1] = target: T1, Bile acid receptor (Homo sapiens) (UniProt Q96RI1); experiment: Agonistic activity at FXR in HEK293 cells at 100 uM by GAL4 transactivation activity; type: functional, cell-based
T1 sequence (whole entry): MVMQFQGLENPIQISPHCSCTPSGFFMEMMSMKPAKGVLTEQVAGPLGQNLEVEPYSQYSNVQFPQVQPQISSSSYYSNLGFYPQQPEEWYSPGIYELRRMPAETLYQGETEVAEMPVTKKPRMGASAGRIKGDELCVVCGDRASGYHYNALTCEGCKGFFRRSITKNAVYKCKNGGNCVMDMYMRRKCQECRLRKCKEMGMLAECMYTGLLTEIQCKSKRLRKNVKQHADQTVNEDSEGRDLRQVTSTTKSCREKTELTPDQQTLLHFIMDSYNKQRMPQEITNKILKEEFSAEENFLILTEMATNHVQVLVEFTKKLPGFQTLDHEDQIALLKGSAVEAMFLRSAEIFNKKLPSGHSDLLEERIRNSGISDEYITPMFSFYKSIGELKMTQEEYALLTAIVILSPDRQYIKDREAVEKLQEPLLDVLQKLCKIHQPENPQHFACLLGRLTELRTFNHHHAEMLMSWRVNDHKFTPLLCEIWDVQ

Bile acid receptor [2] = target: T2, Bile acid receptor (Homo sapiens, UniProt Q96RI1); experiment: Inhibition of FXR in HEK293 cells in presence of CDCA by GAL4 transactivation activity; type: cell-based
T2 sequence (Q96RI1 whole entry): T1 sequence (whole entry)

[3] = target: T3, Progesterone receptor (Homo sapiens) (UniProt P06401); experiment: Activity against PR by transactivation activity at 30 uM
T3 sequence (whole entry): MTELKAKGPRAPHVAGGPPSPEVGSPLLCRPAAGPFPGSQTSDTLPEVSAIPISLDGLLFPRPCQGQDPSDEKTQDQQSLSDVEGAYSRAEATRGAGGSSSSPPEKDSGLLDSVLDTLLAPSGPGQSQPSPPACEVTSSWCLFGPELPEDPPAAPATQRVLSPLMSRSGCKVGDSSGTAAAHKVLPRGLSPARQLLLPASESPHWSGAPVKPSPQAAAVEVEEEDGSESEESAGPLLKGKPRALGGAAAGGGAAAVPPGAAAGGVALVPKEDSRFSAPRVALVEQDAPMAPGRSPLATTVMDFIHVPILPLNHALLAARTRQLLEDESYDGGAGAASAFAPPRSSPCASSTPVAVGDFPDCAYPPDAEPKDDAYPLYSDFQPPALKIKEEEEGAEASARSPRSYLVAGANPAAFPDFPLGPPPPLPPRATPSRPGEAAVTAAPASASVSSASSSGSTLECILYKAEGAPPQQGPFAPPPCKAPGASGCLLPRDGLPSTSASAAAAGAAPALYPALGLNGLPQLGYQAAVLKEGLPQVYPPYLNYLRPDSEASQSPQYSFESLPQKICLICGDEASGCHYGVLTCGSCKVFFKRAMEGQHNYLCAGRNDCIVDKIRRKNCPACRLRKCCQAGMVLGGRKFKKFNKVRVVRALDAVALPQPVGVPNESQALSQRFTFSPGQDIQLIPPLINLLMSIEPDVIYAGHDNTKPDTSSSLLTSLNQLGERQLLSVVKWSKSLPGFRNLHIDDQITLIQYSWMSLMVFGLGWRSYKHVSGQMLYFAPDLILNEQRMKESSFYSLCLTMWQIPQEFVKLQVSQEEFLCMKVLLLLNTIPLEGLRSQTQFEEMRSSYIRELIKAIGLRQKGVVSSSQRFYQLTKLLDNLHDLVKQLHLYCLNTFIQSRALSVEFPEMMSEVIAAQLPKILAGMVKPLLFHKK

[4] = target: T1, Bile acid receptor (Homo sapiens); experiment: Activity at FXR assessed by ligand-induced co-repressor recruitment by two-hybrid assay system
Bile acid receptor [5] = target: T2, Bile acid receptor; experiment: Agonistic activity at FXR in HEK293 cells by GAL4 transactivation activity; type: functional, cell-based

Activity [1]	EC50 (Bile acid receptor [5])	SMILES	also measured
inactive		O=C(O)c1cccc(NC(=O)c2ccc(OCc3c(-c4c(Cl)cccc4Cl)noc3-c3ccc4ccccc4c3)cc2Cl)c1	IC50 (Bile acid receptor [2]): 4 µM; Activity [3]: inactive; Activity [4]: inactive
inactive		CC(C)c1onc(-c2ccc3ccccc3c2)c1COc1ccc(/C=C/c2cccc(C(=O)O)c2)c(Cl)c1	
	3 µM	CC(C)c1onc(-c2c(Cl)cccc2Cl)c1COc1ccc(C(=O)Nc2cccc(C(=O)O)c2)c(Cl)c1	
	1.3 µM	CC(C)(C)c1onc(-c2c(Cl)cccc2Cl)c1COc1ccc(C(=O)Nc2cccc(C(=O)O)c2)c(Cl)c1	
	9 µM	CCCNC(=O)c1cccc(/C=C/c2ccc(OCc3c(-c4c(Cl)cccc4Cl)noc3C(C)C)cc2Cl)c1	
inactive		CC(C)c1onc(-c2ccc(-c3ccccc3)cc2)c1COc1ccc(/C=C/c2cccc(C(=O)O)c2)c(Cl)c1	
inactive		O=C(O)c1cccc(/C=C/c2ccc(OCc3c(-c4c(Cl)cccc4Cl)noc3-c3ccc(-c4ccccc4)cc3)cc2Cl)c1	IC50 (Bile acid receptor [2]): 33.9 µM
	1.3 µM	CC(C)(C)c1onc(-c2c(Cl)cccc2Cl)c1COc1ccc(/C=C/c2cccc(C(=O)O)c2)c(Cl)c1	
inactive		O=C(O)c1cccc(/C=C/c2ccc(OCc3c(-c4c(Cl)cccc4Cl)noc3-c3ccccc3)cc2Cl)c1	IC50 (Bile acid receptor [2]): 15.8 µM
	3.1 µM	CC(C)c1onc(-c2c(Cl)cccc2Cl)c1COc1ccc(C(=O)N(C)c2cccc(C(=O)O)c2)c(Cl)c1	
inactive		O=C(O)c1cccc(NC(=O)c2ccc(OCc3c(-c4c(Cl)cccc4Cl)noc3-c3ccc(-c4ccccc4)cc3)cc2Cl)c1	IC50 (Bile acid receptor [2]): 3.7 µM; Activity [3]: Active
	35.1 µM	CC(C)c1onc(-c2c(Cl)cccc2Cl)c1COc1ccc(/C=C/c2cccc(C(=O)N(Cc3ccccc3)Cc3ccccc3)c2)c(Cl)c1	
	2.5 µM	CC(C)c1onc(-c2c(Cl)cccc2Cl)c1COc1ccc(C(=O)N(Cc2ccccc2)c2cccc(C(=O)O)c2)c(Cl)c1	
	0.84 µM	CC(C)c1onc(-c2c(Cl)cccc2Cl)c1COc1ccc(C(=O)N(CCc2ccccc2)c2cccc(C(=O)O)c2)c(Cl)c1	
inactive		C/C=C1\C(=O)C[C@H]2[C@@H]3CCC4=CC(=O)CC[C@]4(C)[C@H]3CC[C@]12C	Activity [4]: inactive
inactive		O=C(O)c1cccc(/C=C/c2ccc(OCc3c(-c4c(Cl)cccc4Cl)noc3-c3ccc4ccccc4c3)cc2Cl)c1	IC50 (Bile acid receptor [2]): 22.2 µM
	2.1 µM	CCCN(C(=O)c1ccc(OCc2c(-c3c(Cl)cccc3Cl)noc2C(C)C)cc1Cl)c1cccc(C(=O)O)c1	

— ChEMBL document CHEMBL1147183, “Design, synthesis, and evaluation of non-steroidal farnesoid X receptor (FXR) antagonist” (Bioorg Med Chem, 2007)
